This is an account of results in ChEMBL document CHEMBL1147112 (2007).

Assay [1] deals with Staphylococcus aureus. In words: Antimicrobial activity against methicillin-resistant Staphylococcus aureus ATCC 43300 in human monocyte-derived macrophages at 2.5 ug/ml assessed as bacterial viability after 4 hrs. The class given is functional.
For assay [2], the system named is Staphylococcus aureus. In words: Antimicrobial activity against methicillin-resistant Staphylococcus aureus ATCC 43300 in human monocyte-derived macrophages at 0.25 ug/ml assessed as bacterial viability after 2 hrs. It counts as functional.
The subject of assay [3] is Staphylococcus aureus. In words: Antimicrobial activity against methicillin-susceptible Staphylococcus aureus ATCC 29213 in human monocyte-derived macrophages at 5 ug/ml assessed as bacterial viability after 24 hrs. It counts as functional.
The test system of assay [4] is Staphylococcus aureus. Nature of the assay: Antimicrobial activity against methicillin-resistant Staphylococcus aureus ATCC 43300 in human monocyte-derived macrophages at 0.25 ug/ml assessed as bacterial viability after 24 hrs. The class given is functional.
Assay [5] has as its system Staphylococcus aureus. In words: Antimicrobial activity against methicillin-resistant Staphylococcus aureus ATCC 43300 in human monocyte-derived macrophages at 2.5 ug/ml assessed as bacterial viability after 2 hrs. The class given is functional.
Assay [6] relates to Staphylococcus aureus. Nature of the assay: Antimicrobial activity against methicillin-susceptible Staphylococcus aureus ATCC 29213 in human monocyte-derived macrophages at 0.25 ug/ml assessed as bacterial viability after 24 hrs. It counts as functional.
Assay [7] relates to Staphylococcus aureus. Nature of the assay: Antimicrobial activity against methicillin-resistant Staphylococcus aureus ATCC 43300 in human monocyte-derived macrophages at 0.5 ug/ml assessed as bacterial viability after 2 hrs. It counts as functional.
For assay [8], the system named is Staphylococcus aureus. Nature of the assay: Antimicrobial activity against methicillin-susceptible Staphylococcus aureus ATCC 29213 in human monocyte-derived macrophages at 2.5 ug/ml assessed as bacterial viability after 24 hrs. The class given is functional.
Assay [9] deals with Staphylococcus aureus. Nature of the assay: Antimicrobial activity against methicillin-susceptible Staphylococcus aureus ATCC 29213 in human monocyte-derived macrophages at 2.5 ug/ml assessed as bacterial viability after 2 hrs. The class given is functional.
Assay [10] relates to Staphylococcus aureus. Nature of the assay: Antimicrobial activity against methicillin-resistant Staphylococcus aureus ATCC 43300 in human monocyte-derived macrophages at 5 ug/ml assessed as bacterial viability after 24 hrs. It counts as functional.
Assay [11] has as its system Staphylococcus aureus. Nature of the assay: Antimicrobial activity against methicillin-susceptible Staphylococcus aureus ATCC 29213 in human monocyte-derived macrophages at 2.5 ug/ml assessed as bacterial viability after 4 hrs. It counts as functional.
The subject of assay [12] is Staphylococcus aureus. In words: Antimicrobial activity against methicillin-susceptible Staphylococcus aureus ATCC 29213 in human monocyte-derived macrophages at 0.5 ug/ml assessed as bacterial viability after 2 hrs. It counts as functional.
Assay [13] has as its system Staphylococcus aureus. In words: Antimicrobial activity against methicillin-susceptible Staphylococcus aureus ATCC 29213 in human monocyte-derived macrophages at 0.25 ug/ml assessed as bacterial viability after 2 hrs. The class given is functional.
The subject of assay [14] is Staphylococcus aureus. In words: Antimicrobial activity against methicillin-susceptible Staphylococcus aureus ATCC 29213 in human monocyte-derived macrophages at 0.5 ug/ml assessed as bacterial viability after 4 hrs. The class given is functional.
Assay [15] concerns Staphylococcus aureus. In words: Antimicrobial activity against methicillin-susceptible Staphylococcus aureus ATCC 29213 in human monocyte-derived macrophages at 5 ug/ml assessed as bacterial viability after 4 hrs. It counts as functional.
Assay [16] has as its system Staphylococcus aureus. In words: Antimicrobial activity against methicillin-susceptible Staphylococcus aureus ATCC 29213 in human monocyte-derived macrophages at 0.25 ug/ml assessed as bacterial viability after 4 hrs. It counts as functional.
Assay [17] concerns Staphylococcus aureus. In words: Antimicrobial activity against methicillin-resistant Staphylococcus aureus ATCC 43300 in human monocyte-derived macrophages at 0.25 ug/ml assessed as bacterial viability after 4 hrs. The class given is functional.
Assay [18] relates to Staphylococcus aureus. In words: Antimicrobial activity against methicillin-resistant Staphylococcus aureus ATCC 43300 in human monocyte-derived macrophages at 0.5 ug/ml assessed as bacterial viability after 4 hrs. It counts as functional.
Assay [19] relates to Staphylococcus aureus. Nature of the assay: Antimicrobial activity against methicillin-resistant Staphylococcus aureus ATCC 43300 in human monocyte-derived macrophages at 0.5 ug/ml assessed as bacterial viability after 24 hrs. It counts as functional.
Assay [20] deals with Staphylococcus aureus. In words: Antimicrobial activity against methicillin-susceptible Staphylococcus aureus ATCC 29213 in human monocyte-derived macrophages at 0.5 ug/ml assessed as bacterial viability after 24 hrs. It counts as functional.
Assay [21] deals with Staphylococcus aureus. Nature of the assay: Antimicrobial activity against methicillin-resistant Staphylococcus aureus ATCC 43300 in human monocyte-derived macrophages at 5 ug/ml assessed as bacterial viability after 4 hrs. The class given is functional.
For assay [22], the system named is Staphylococcus aureus. In words: Antimicrobial activity against methicillin-susceptible Staphylococcus aureus ATCC 29213 in human monocyte-derived macrophages at 5 ug/ml assessed as bacterial viability after 2 hrs. It counts as functional.
Assay [23] relates to Staphylococcus aureus. In words: Antimicrobial activity against methicillin-resistant Staphylococcus aureus ATCC 43300 in human monocyte-derived macrophages at 5 ug/ml assessed as bacterial viability after 2 hrs. The class given is functional.
Assay [24] deals with Staphylococcus aureus. In words: Antimicrobial activity against methicillin-resistant Staphylococcus aureus ATCC 43300 in human monocyte-derived macrophages at 2.5 ug/ml assessed as bacterial viability after 24 hrs. The class given is functional.
Assay [25] deals with Staphylococcus aureus. In words: Extracellular killing of Staphylococcus aureus 8111 in MH-2 broth at 0.5 ug/ml assessed as suppression of number of viable bacteria after 24 hrs. It counts as functional, organism-based.
Assay [26] relates to Staphylococcus aureus. In words: Antimicrobial activity against methicillin-resistant Staphylococcus aureus 8111. It counts as functional.
For assay [27], the system named is Staphylococcus aureus. In words: Antimicrobial activity against methicillin-resistant Staphylococcus aureus ATCC 43300. It counts as functional.
Assay [28] deals with Staphylococcus aureus. Nature of the assay: Antimicrobial activity against methicillin-susceptible Staphylococcus aureus ATCC 29213. It counts as functional.

Values after ≈ are worked out from the molar mass of the structure shown. Active and inactive are the calls of the source. The rule behind the calls is not given here.

In the case of `CN[C@H](CC(C)C)C(=O)N[C@H]1C(=O)N[C@@H](CC(N)=O)C(=O)N[C@H]2C(=O)N[C@H]3C(=O)N[C@H](C(=O)N[C@H](C(=O)O)c4cc(O)cc(O)c4-c4cc3ccc4O)[C@H](O)c3ccc(c(Cl)c3)Oc3cc2cc(c3O[C@@H]2O[C@H](CO)[C@@H](O)[C@H](O)[C@H]2O[C@H]2C[C@](C)(N)[C@H](O)[C@H](C)O2)Oc2ccc(cc2Cl)[C@H]1O` [VANCOMYCIN], the log10CFU/ml in assay [1] is -0.88; in [2], 0.6; in [3], -0.85; in assay [4] it was 2.47; in assay [5], -0.38; in assay [6] it was 2.17. The log10CFU/ml in assay [7] was -0.39; in [8], -0.46; in [9] it was -0.86; in assay [10] it was -1.62; in assay [11] it was -1.07; in [12] it was 0.51. Moreover, the log10CFU/ml is 0.98 in assay [13]; 1.85 in assay [14]; -1.14 in assay [15]; 2.14 in assay [16]; 1.58 in assay [17]; 0.03 in assay [18]. The log10CFU/ml is listed as 2.23 in assay [19]; 2.17 in assay [20]; -0.84 in assay [21]; -0.85 in [22]; -0.51 in assay [23]; -1.6 in assay [24].

Usually MIC stands for the lowest concentration that inhibits growth of the organism. Read a low MIC as a more susceptible organism. Regarding `CCCCCCCCCC(=O)N[C@@H](Cc1c[nH]c2ccccc12)C(=O)N[C@H](CC(N)=O)C(=O)N[C@@H](CC(=O)O)C(=O)N[C@@H]1C(=O)NCC(=O)N[C@@H](CCCN)C(=O)N[C@@H](CC(=O)O)C(=O)N[C@H](C)C(=O)N[C@@H](CC(=O)O)C(=O)NCC(=O)N[C@H](CO)C(=O)N[C@@H]([C@H](C)CC(=O)O)C(=O)N[C@@H](CC(=O)c2ccccc2N)C(=O)O[C@@H]1C`, the log10CFU/ml in assay [1] is listed as -1.48; in assay [2] it was 0.14; in assay [3], -0.52; in assay [4], 2.1; in assay [5], -1.35; in assay [6], 2.02. Also, the log10CFU/ml in assay [8] is -0.32; in assay [9], -1.7; in assay [10], -1.06; in [11], -1.75; in assay [12] it was -0.59; in assay [13] it was 0.57. For the same compound, the log10CFU/ml in assay [14] is listed as 0.76; in [15], -2.05; in assay [16] it was 1.84; in [17], 1.27; in assay [18], 0; in assay [19] it was 1.93. Further, the log10CFU/ml in [20] is 2; in assay [21] it was -1.8; in [22] it was -2; in [23] it was -1.52; in assay [24] it was -0.83. Also, the result in assay [25] was Active. The MIC in [26], in assay [27] and in assay [28] was 0.5 µg/mL (≈ 0.309 µM) each time.

For the compound GENTAMICIN, the MIC in assay [26] was determined as 2 µg/mL; in [27], 128 µg/mL; in assay [28] it was 1 µg/mL.

Take `Cc1onc(-c2ccccc2)c1C(=O)N[C@@H]1C(=O)N2[C@@H]1SC(C)(C)[C@@H]2C(=O)O` [OXACILLIN]: the log10CFU/ml in assay [1] is given as -1.32; in [2], -0.85; in [3], -2.7; in assay [4], -1.02; in assay [5], -0.94; in [6] it was -1.47. Besides, the log10CFU/ml in [7] is reported as -0.85; in assay [8], -2.7; in assay [10], -3; in [11], -2.05; in assay [12], -0.48; in assay [13], 0.21. In addition, the log10CFU/ml in [14] is -1.51; in assay [15], -1.72; in assay [16] it was -0.05; in [18], -1.35; in assay [19] it was -2.52; in [20] it was -1.54. The log10CFU/ml in assay [21] is on record as -1.75; in assay [22] it was -0.91; in assay [23], -1.27; in [24], -2.7. Also, the MIC in [26] was 64 µg/mL (≈ 159 µM); in assay [27] it was 16 µg/mL (≈ 39.9 µM); in [28] it was 0.5 µg/mL (≈ 1.25 µM).

On to `CO[C@H]1/C=C/O[C@@]2(C)Oc3c(C)c(O)c4c(O)c(c(/C=N/N5CCN(C)CC5)c(O)c4c3C2=O)NC(=O)/C(C)=C\C=C\[C@H](C)[C@H](O)[C@@H](C)[C@@H](O)[C@@H](C)[C@H](OC(C)=O)[C@@H]1C` [RIFAMPIN], for which the MIC in [26], in [27] and in [28] was 0.015 µg/mL (≈ 0.0182 µM) throughout.
